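Grown in 96-well plates, cells were treated for 48 hours with each compound at five concentrations. Insufficient inhibition: endpoint recorded as highest concentration tested. GI50 = concentration required for 50% inhibition of growth.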 Activity calls are given as the source filed them. Rule as the data show it: active = GI50 up to about 1.1 µM and inactive = higher.
What was measured:
Experiment in all cases: NCI anticancer screen, dose series, 48 h
UACC-257 = tested on: UACC-257
MCF7 = tested on: MCF7
U-251 = tested on: U-251
DU-145 = tested on: DU-145
OVCAR-4 = tested on: OVCAR-4
NCI-H460 = tested on: NCI-H460
SW-620 = tested on: SW-620
UO-31 = tested on: UO-31
786-0 = tested on: 786-0
HCT-15 = tested on: HCT-15
SK-OV-3 = tested on: SK-OV-3
A498 = tested on: A498
SF-268 = tested on: SF-268
NCI/ADR-RES = tested on: NCI/ADR-RES
IGROV-1 = tested on: IGROV-1
SK-MEL-5 = tested on: SK-MEL-5
SK-MEL-28 = tested on: SK-MEL-28
MOLT-4 = tested on: MOLT-4
OVCAR-8 = tested on: OVCAR-8
SF-539 = tested on: SF-539
KM12 = tested on: KM12
SNB-75 = tested on: SNB-75
HT-29 = tested on: HT-29
MDA-MB-435 = tested on: MDA-MB-435
HCT-116 = tested on: HCT-116
TK-10 = tested on: TK-10
UACC-62 = tested on: UACC-62
CAKI-1 = tested on: CAKI-1
A549 = tested on: A549
MDA-MB-231 = tested on: MDA-MB-231
SR = tested on: SR
HL-60 = tested on: HL-60
M14 = tested on: M14
K562 = tested on: K562
COLO 205 = tested on: COLO 205
LOX IMVI = tested on: LOX IMVI
HCC 2998 = tested on: HCC 2998
SF-295 = tested on: SF-295
RPMI-8226 = tested on: RPMI-8226
HOP-62 = tested on: HOP-62
SN12C = tested on: SN12C
ACHN = tested on: ACHN
NCI-H226 = tested on: NCI-H226
EKVX = tested on: EKVX
Malme-3M = tested on: Malme-3M
PC-3 = tested on: PC-3
SNB-19 = tested on: SNB-19
CCRF-CEM = tested on: CCRF-CEM
T47D = tested on: T47D
Hs-578T = tested on: Hs-578T
MDA-N = tested on: MDA-N
SK-MEL-2 = tested on: SK-MEL-2
NCI-H23 = tested on: NCI-H23
OVCAR-3 = tested on: OVCAR-3
HOP-92 = tested on: HOP-92
OVCAR-5 = tested on: OVCAR-5
RXF 393 = tested on: RXF 393
NCI-H522 = tested on: NCI-H522

Measured: GI50

O=C(/C=C/c1ccsc1)c1ccsc1
19.1 µM: HCT-15
inactive: UACC-257 19.1 µM | MCF7 13.8 µM | U-251 18.1 µM | DU-145 > 100 µM | OVCAR-4 37.2 µM | NCI-H460 23.7 µM | SW-620 24.8 µM | UO-31 15.4 µM | 786-0 21.4 µM | SK-OV-3 > 100 µM | A498 37.5 µM | SF-268 44.8 µM | NCI/ADR-RES > 100 µM | IGROV-1 31.3 µM | SK-MEL-5 19.2 µM | SK-MEL-28 37.1 µM | MOLT-4 17.6 µM | OVCAR-8 26.6 µM | SF-539 17.5 µM | KM12 18.9 µM | SNB-75 37 µM | HT-29 26.8 µM | MDA-MB-435 22.5 µM | HCT-116 16.2 µM | TK-10 23.8 µM | UACC-62 32.4 µM | CAKI-1 20.9 µM | A549 38.2 µM | MDA-MB-231 20.6 µM | SR 19.5 µM | HL-60 17 µM | M14 33.7 µM | K562 > 10 µM | COLO 205 22.4 µM | LOX IMVI 19.1 µM | HCC 2998 19.5 µM | SF-295 40.7 µM | RPMI-8226 15.5 µM | HOP-62 > 100 µM | SN12C 19.5 µM | ACHN 20.4 µM | NCI-H226 17 µM | EKVX 70.5 µM | Malme-3M 26.4 µM | PC-3 19.8 µM | SNB-19 20.2 µM | CCRF-CEM 19.1 µM | T47D 28.2 µM | Hs-578T 27.8 µM | MDA-N 23.2 µM | SK-MEL-2 > 100 µM | NCI-H23 21.6 µM

CC(=O)c1c2c(cc3c1CC1(Cc4cc5c(cc4C1)CCC5)C3)CCC2
inactive: UACC-257 63.8 µM | MCF7 > 100 µM | OVCAR-3 > 100 µM | U-251 > 100 µM | DU-145 > 100 µM | OVCAR-4 > 100 µM | HOP-92 > 100 µM | NCI-H460 > 100 µM | SW-620 > 100 µM | UO-31 > 100 µM | 786-0 > 100 µM | SK-OV-3 > 100 µM | A498 > 100 µM | OVCAR-5 > 100 µM | SF-268 > 100 µM | RXF 393 > 100 µM | NCI/ADR-RES > 100 µM | IGROV-1 > 100 µM | SK-MEL-5 > 100 µM | SK-MEL-28 > 100 µM | MOLT-4 > 100 µM | OVCAR-8 > 100 µM | SF-539 > 100 µM | SNB-75 > 100 µM | HT-29 78.2 µM | MDA-MB-435 > 100 µM | HCT-116 75 µM | TK-10 > 100 µM | CAKI-1 > 100 µM | A549 > 100 µM | MDA-MB-231 > 100 µM | NCI-H522 > 100 µM | SR > 100 µM | HL-60 > 100 µM | M14 > 100 µM | K562 > 100 µM | LOX IMVI > 100 µM | HCC 2998 > 100 µM | SF-295 > 100 µM | RPMI-8226 > 100 µM | HOP-62 > 100 µM | ACHN > 100 µM | EKVX > 100 µM | Malme-3M > 100 µM | PC-3 > 100 µM | SNB-19 > 100 µM | CCRF-CEM > 100 µM | T47D > 100 µM | Hs-578T > 100 µM | MDA-N > 100 µM | SK-MEL-2 > 100 µM | NCI-H23 > 100 µM
> 100 µM: HCT-15

Reference: ChEMBL document CHEMBL1201862, “PubChem BioAssay data set” (2004)
